“Also recorded” adds a separate entry of the source. Blank lines part the entries; values can stand above or below the compound they belong to.
Columns and labels:
[1] = test system: ABA receptors (PYR1, PYL4, PYL8); experiment: ABA receptor antagonism in vitro, statements not resolved by receptor (PYR1, PYL4, PYL8 panel); type: biochemical, Arabidopsis
Procedure: (§1) Prior to synthesizing a library of OP-4-triazoles we conducted model click reactions to establish the feasibility and efficiency of using unpurified reaction mixtures directly in ABA receptor activation assays. These reactions were performed using OPZ and 4-ethynyltoluene as follows: we mixed OPZ (4 uL, 25 mM), alkyne (10 uL, 10 mM), sodium ascorbate (2 uL, 20 mM), BTTA (2 uL, 20 mM) and copper(II) sulphate (2 uL, 10 mM) in a 200 μL PCR tube and incubated the reaction at 37° C. for 48 hr. The reaction was monitored using TLC. In parallel, we ran a scaled-up synthesis of the triazole using similar ratios of the reagents and conditions, followed by precipitation of the product by the addition of 2N HCl and subsequent filtration to yield triazole T1 from 4-ethynyltoluene as white powder in quantitative yields. The purified triazole and unpurified click reaction were both tested in receptor-mediated phosphatase inhibition assays. […] Reactions were mixed and equilibrated for 20 minutes, substrate (4-methylumbelliferyl phosphate, 1 mM final) was added, and fluorescence data were collected (λ, exc=360 nm, λ emm=460 nm) using a Tecan Infinite F200 Pro fluorimeter. PP2C activity was calculated relative to solvent-only control wells (i.e. receptors and PP2C in assay buffer, but no test compound); compounds were tested in duplicate. […]

Arabidopsis (Col) seeds = experiment: Arabidopsis seed germination/greening assay in presence of ABA; type: in vivo; conditions: for blocking of ABA inhibition of cotyledon greening: 30 μM pure compound
Procedure: To evaluate and prioritize the 204 hits obtained, we examined their effects on ABA-mediated inhibition of Arabidopsis seed germination and seedling growth. Arabidopsis seeds germinate and produce photosynthetically active cotyledons within 4-days post imbibition under illumination. Low concentrations of ABA (i.e. 1 μM) inhibit both germination and seedling growth, which is easily quantified by image analysis of green pixel counts. This provides a simple test for ABA antagonists, as they will block the inhibitory effects of ABA on greening. We used this assay to characterize the 204 hit molecules. Greening experiments were performed in 96-well polystyrene petri plates using surface sterilized Arabidopsis (Col) seeds plated on to 0.7% agar medium containing ½-X MS salts, 0.5% sucrose, 1 μM ABA, and one of the 204 click reactions products (˜10 μM). After 4 days of stratification (4° C.), the plates were transferred to a growth chamber under continuous illumination and photographed 4 days later. Each experiment included ABA (1 μM ABA, no antagonist) and mock (no ABA) controls.
The OP-4-triazoles 48E9T, 49C10T, 49 Å2T, 1H6T and 6E4T were tested in Arabidopsis greening assays at 30 μM in presence or absence of 1 μM ABA using conditions described in Example 7. […] (FIG. 7).
Purified triazoles were evaluated for their ability to block the effects of exogenous ABA in inhibiting seed germination/greening, performed as described in Example 7 using the purified OP-4-peptidotriazole hits, PanMe, AA1, and OPZ at concentrations ranging from 200 nM to 50000 nM in triplicate in presence of 1 μM ABA. Seed germination was scored at the lowest concentration tested, while greening data (normalized to mock control) was fitted to log(inhibitor) vs. response-(variable slope) model using non-linear regression to infer the EC50S, using GraphPad Prism 6.0.

Arabidopsis seeds = experiment: Thermoinhibition of seed germination assay; type: in vivo; conditions: 0.2 μM to 50 μM, 37° C. in dark for 72 hrs
Excerpt: Adverse environmental conditions during germination can affect dormancy in several species. For example, high temperatures during seed imbibition can prevent seed germination and induce a form of secondary seed dormancy in a process called thermoinhibition. Although thermoinhibtion is complex, elevated ABA levels induced by heat play a critical role, as evidenced by both the identification of ABA-deficient varieties of lettuce with reduced sensitivity to thermoinhibition and pharmacological experiments using fluridone, which disrupts ABA biosynthesis and thermoinhibition in many species. Chemicals that can counter this effect of heat stress could find use as seed treatments to ensure consistent germination under adverse conditions. […] 96 well polystyrene petri plates with surface sterilized Arabidopsis seeds plated on 0.7% agar medium containing ½-x MS salts, 0.5% sucrose, and doses spanning from 0.2 μM to 50 μM of different OP-4-peptidotriazoles, PanMe, AA1, OPZ and fluridone as a positive control. After 4 d of stratification at 4° C., the plates were transferred to an incubation chamber at 37° C. in dark for 72 hrs. After heat treatment, the plates were placed in dark in an incubation chamber at RT for 48 hrs and photographed.

ABA receptors = conditions: cited from earlier work
[2] = Light sensitivity of the isolated product; type: physicochemical; conditions: isolated solid, stored at −20° C.
Procedure: 142-(4-Azido-3,5-dicyclopropylphenyl)acetylaminolcyclohexanecarboxylic acid (2b; OPZ) To a solution of 2a (0.4 g, 1.01 mmoles, 1 equiv) in methanol/water 20 mL (1:1 v/v) was added lithium hydroxide (0.48 g, 20.2 mmoles, 20 equiv) and stirred at RT for 24 hr. After completion of the reaction (TLC), 2N HCl was added to the reaction mixture to precipitate the product as a white solid in near quantitative yields.

PYR1 = biological target: T1, PYR1 (Arabidopsis thaliana, UniProt O49686); experiment: ABA/receptor-mediated PP2C (ΔN-HAB1) phosphatase inhibition assay, PYR1; type: biochemical; conditions: 100 nM PYR1, 25 nM ΔN-HAB1, 50 μM test compound, presence or absence of 5 μM ABA
T1 construct: made in house
T1 sequence (O49686 1-191): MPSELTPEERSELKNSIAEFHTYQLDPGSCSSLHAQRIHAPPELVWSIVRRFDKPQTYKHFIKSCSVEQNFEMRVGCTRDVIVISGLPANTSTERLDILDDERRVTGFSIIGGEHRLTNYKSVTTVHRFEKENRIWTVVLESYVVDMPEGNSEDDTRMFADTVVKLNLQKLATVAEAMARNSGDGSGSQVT
Procedure: as §1

Arabidopsis seedlings = experiment: Primary root growth assay in presence of ABA; type: in vivo; conditions: 5 and 10 μM, 10 μM ABA, 72 hrs
Procedure: Purified triazoles were evaluated for their ability to block effects of exogenous ABA in inhibiting primary root growth in Arabidopsis seedlings. Arabidopsis seeds were surface sterilized and plated on 0.7% agar medium containing 1⁄2-x MS salts, 0.5% sucrose. After 4 d of stratification at 4° C., transferred to dark chamber for 48 hrs. 5-6 seedlings at this stage were transferred to chemical plates containing purified triazole hits, PanMe, AA1 and OPZ at 5 and 10 μM in triplicate in presence of 10 μM ABA. Additional ABA controls (10 μM ABA, no antagonist) were also performed to assess effects of ABA on growth in absence of antagonist and transferred to dark chamber at RT for 72 hrs. Root lengths were measured and normalized to mock controls (FIG. 13).

MAPKKK18 gene expression = experiment: MAPKKK18::Luc luciferase reporter assay of ABA induced gene expression; type: in vivo, Arabidopsis thaliana; conditions: 25 μM test chemical, 25 μM ABA, 6 hr
Procedure: ASV1E9T, PanMe, AA1 and OPZ were evaluated for their ability to block effects of exogenous ABA in inducing MAPKKK18 gene expression in Arabidopsis seedlings. Arabidopsis seeds (MAPKKKI8::Luc reporter line) were surface sterilized grown and plant growth liquid medium (½ Murashige and Skoog medium and 0.5% Sucrose) under 16 hour light and 8 hour dark conditions. 10 day old seedlings were transferred to new plant growth liquid medium with test chemical at 25 μM in presence of equimolar concentration of ABA and 100 μM luciferin. Luciferase assay image were taken by XYZ camera after 6 hr of treatments. The average luminescent intensity was quantified using ImageJ. Average intensity was calculated for quadruplicates and the error bars on graphs represent the standard error of mean. […] (FIG. 14)

Compound: O=C(Cc1cc(C2CC2)c(-n2cc(Cn3c(=O)oc4cc(Cl)ccc43)nn2)c(C2CC2)c1)NC1(C(=O)O)CCCCC1 [1H6T]
receptor selectivity (pan vs selective antagonist) [1]: pan antagonist | phytotoxicity (Arabidopsis (Col) seeds; 30 μM): possible phytotoxicity | blocking of ABA inhibition of cotyledon greening (Arabidopsis (Col) seeds; 1 μM ABA): weakly active

Compound: COc1ccc(-c2nc3ccccc3n2Cc2cn(-c3c(C4CC4)cc(CC(=O)NC4(C(=O)O)CCCCC4)cc3C3CC3)nn2)cc1 [6E4T]
receptor selectivity (pan vs selective antagonist) [1]: PYR1-selective antagonist | blocking of ABA inhibition of cotyledon greening (Arabidopsis (Col) seeds; 1 μM ABA): only weakly effective

Compound: O=C(Cc1cc(C2CC2)c(-n2cc(CNC(=O)c3cnc4ccccc4n3)nn2)c(C2CC2)c1)NC1(C(=O)O)CCCCC1 [48E9T]
blocking of ABA inhibition of cotyledon greening (Arabidopsis (Col) seeds; 1 μM ABA): highly effective in blocking the effects of ABA

Compound: O=C(Cc1cc(C2CC2)c(-n2cc(CNC(=O)c3coc(Br)c3)nn2)c(C2CC2)c1)NC1CCC(C(=O)O)CC1 (stereo not shown) [49 Å2T]
block of thermoinhibition of germination (Arabidopsis seeds): block thermoinhibition | blocking of ABA inhibition of cotyledon greening (Arabidopsis (Col) seeds; 1 μM ABA): highly effective in blocking the effects of ABA

Compound: Cc1cccc(C(=O)NCc2cn(-c3c(C4CC4)cc(CC(=O)NC4(C(=O)O)CCCCC4)cc3C3CC3)nn2)n1 [49C10T]
blocking of ABA inhibition of cotyledon greening (Arabidopsis (Col) seeds; 1 μM ABA): highly effective in blocking the effects of ABA

Compound: CCCCCCSC1=C(C)[C@](O)(/C=C/C(C)=C\C(=O)O)C(C)(C)CC1=O [AS6]
in vitro activity (literature antagonists) (ABA receptors): modest in vitro activity

light sensitivity [2]: extremely light sensitive | effect on PYR1 in PP2C activity assay (PYR1): weak partial PYR1 agonist/antagonist
Compound: [N-]=[N+]=Nc1c(C2CC2)cc(CC(=O)NC2CCC(C(=O)O)CC2)cc1C1CC1 (stereo not shown) [OPZ, 142-(4-Azido-3,5-dicyclopropylphenyl)acetylaminolcyclohexanecarboxylic acid]

Compound: CC1=C[C@@H](OCC#Cc2ccc(C)cc2)CC(C)(C)[C@@]1(O)/C=C/C(C)=C\C(=O)O [PanMe]
block of thermoinhibition of germination (Arabidopsis seeds): blocks thermoinhibition but its effects decreased at higher concentrations | in vitro activity (literature antagonists) (ABA receptors): modest in vitro activity | phytotoxicity (Arabidopsis (Col) seeds; 200 nM to 50000 nM dose range): phytotoxicity; also recorded: phytotoxic at higher concentrations | blocking of ABA inhibition of seed germination/greening (Arabidopsis (Col) seeds; 200 nM to 50000 nM, 1 μM ABA, triplicate): blocks ABA's effects at lower concentrations | block of ABA inhibition of primary root growth (Arabidopsis seedlings): weak effects | block of ABA induced MAPKKK18::Luc gene expression (MAPKKK18 gene expression): less effective

Compound: fluridone
block of thermoinhibition of germination (Arabidopsis seeds): blocks thermoinhibition at all concentrations tested

From patent US11641857B2, “Unusually potent ABA receptor pan-antagonists” (The Regents of the University of California, priority 2019, dated 2023)
